These results are taken from PMC4051630, “A Comparison of Protein Kinases Inhibitor Screening Methods Using Both Enzymatic Activity and Binding Affinity Determination” (PLoS ONE, 2014).

The structures appear in SMILES notation.

Common to all, as to assay: Differential Scanning Fluorimetry (DSF) Tm shift
What all share (type): binding
On the technique in general: In DSF a fluorescence change marks the thermal transition of the protein.

Assay [1] concerns the target T1, STK3 Catalytic domain+SARAH (Homo sapiens, UniProt Q13188).
T1 construct: for 8, we also made a longer version containing one or more additional domains; His-tag; made in house; host or cells: Escherichia coli
T1 sequence (Q13188 1-491): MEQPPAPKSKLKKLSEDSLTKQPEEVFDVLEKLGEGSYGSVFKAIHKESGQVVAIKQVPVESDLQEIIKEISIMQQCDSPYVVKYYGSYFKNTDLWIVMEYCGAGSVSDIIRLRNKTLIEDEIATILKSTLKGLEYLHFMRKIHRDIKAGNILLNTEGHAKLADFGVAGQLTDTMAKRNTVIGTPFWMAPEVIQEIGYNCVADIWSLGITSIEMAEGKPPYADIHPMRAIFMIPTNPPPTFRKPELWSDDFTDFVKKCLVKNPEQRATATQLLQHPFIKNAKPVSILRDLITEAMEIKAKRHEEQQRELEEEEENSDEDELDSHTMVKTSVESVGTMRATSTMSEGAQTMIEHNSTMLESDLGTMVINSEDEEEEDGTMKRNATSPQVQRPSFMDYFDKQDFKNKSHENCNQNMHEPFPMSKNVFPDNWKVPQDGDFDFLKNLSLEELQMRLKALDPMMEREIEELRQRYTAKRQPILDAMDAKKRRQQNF
The settings on record: 2 µM protein, 10 µM inhibitor, average of 3 experiments, each in duplicate.

Assay [2] deals with T2, DMPK Catalytic Domain (Homo sapiens, UniProt Q09013).
T2 construct: For all of them, we expressed and purified the catalytic domain separately; His-tag; made in house; host or cells: Escherichia coli
T2 sequence (Q09013 71-339 limits assumed): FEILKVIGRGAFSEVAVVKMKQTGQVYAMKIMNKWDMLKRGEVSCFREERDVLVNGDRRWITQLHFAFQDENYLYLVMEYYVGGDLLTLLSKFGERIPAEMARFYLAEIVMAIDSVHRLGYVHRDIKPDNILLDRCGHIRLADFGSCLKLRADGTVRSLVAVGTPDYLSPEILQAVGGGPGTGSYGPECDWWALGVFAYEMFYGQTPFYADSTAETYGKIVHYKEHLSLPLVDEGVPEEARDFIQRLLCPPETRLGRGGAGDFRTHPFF
The settings on record: 2 µM protein, 10 µM inhibitor, average of 3 experiments, each in duplicate.

Assay [3] concerns the target T3, PAK4 Catalytic Domain+PBD (Homo sapiens, UniProt O96013).
T3 construct: for 8, we also made a longer version containing one or more additional domains; His-tag; made in house; host or cells: Escherichia coli
The settings on record: 2 µM protein, 10 µM inhibitor, average of 3 experiments, each in duplicate.

The target in assay [4] is SRC Catalytic Domain (Homo sapiens, UniProt P12931). Set-up: For all of them, we expressed and purified the catalytic domain separately; His-tag; made in house; host or cells: Escherichia coli. To be noted: 2 µM protein, 10 µM inhibitor, average of 3 experiments, each in duplicate.
Sequence of SRC Catalytic Domain (P12931 270-523 limits assumed): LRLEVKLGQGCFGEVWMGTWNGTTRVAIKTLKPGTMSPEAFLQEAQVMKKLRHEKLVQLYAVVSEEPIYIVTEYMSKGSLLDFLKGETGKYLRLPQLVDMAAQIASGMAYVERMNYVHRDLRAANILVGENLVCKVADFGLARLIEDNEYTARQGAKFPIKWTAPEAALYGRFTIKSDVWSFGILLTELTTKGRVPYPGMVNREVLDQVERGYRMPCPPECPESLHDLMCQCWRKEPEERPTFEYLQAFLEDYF
For assay [5], the target named is T4, FES Catalytic Domain (Homo sapiens, UniProt P07332).
T4 construct: For all of them, we expressed and purified the catalytic domain separately; His-tag; made in house; host or cells: Escherichia coli
T4 sequence (P07332 561-822 limits assumed): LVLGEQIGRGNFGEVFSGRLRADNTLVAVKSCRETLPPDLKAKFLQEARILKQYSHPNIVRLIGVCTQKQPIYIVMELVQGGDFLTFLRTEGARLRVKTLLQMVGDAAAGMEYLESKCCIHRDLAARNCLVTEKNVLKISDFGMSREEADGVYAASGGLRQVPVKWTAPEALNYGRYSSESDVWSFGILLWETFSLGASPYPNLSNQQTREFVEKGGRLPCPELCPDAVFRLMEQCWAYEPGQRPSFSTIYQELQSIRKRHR
The settings on record: 2 µM protein, 10 µM inhibitor, average of 3 experiments, each in duplicate.

The target of assay [6] is T5, FES Catalytic Domain+SH2 (Homo sapiens, UniProt P07332).
T5 construct: for 8, we also made a longer version containing one or more additional domains; His-tag; made in house; host or cells: Escherichia coli
T5 sequence (P07332 448-822 limits assumed): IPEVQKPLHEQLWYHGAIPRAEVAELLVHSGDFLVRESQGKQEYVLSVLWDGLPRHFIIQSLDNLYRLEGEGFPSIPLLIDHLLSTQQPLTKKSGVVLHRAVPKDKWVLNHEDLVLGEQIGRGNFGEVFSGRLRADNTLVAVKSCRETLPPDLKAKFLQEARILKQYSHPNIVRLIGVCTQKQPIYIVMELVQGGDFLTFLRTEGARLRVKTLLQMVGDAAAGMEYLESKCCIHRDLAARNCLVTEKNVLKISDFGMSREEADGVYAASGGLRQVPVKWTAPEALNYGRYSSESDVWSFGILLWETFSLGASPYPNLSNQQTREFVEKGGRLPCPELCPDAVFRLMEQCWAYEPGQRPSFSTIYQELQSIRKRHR
To be noted: 2 µM protein, 10 µM inhibitor, average of 3 experiments, each in duplicate.

The target in assay [7] is T6, CDK2 + Cyclin A (Homo sapiens, UniProt P24941).
T6 construct: CDK2 (P24941); 1–299; His-tag; made in house; host or cells: Escherichia coli
To be noted: CDK2 + Cyclin A; 2 µM protein, 10 µM inhibitor; average of 3 experiments, each in duplicate.

Assay [8] concerns the target SRC Catalytic Domain+SH2+SH3 (Homo sapiens, UniProt P12931). To be noted: 2 µM protein, 10 µM inhibitor, average of 3 experiments, each in duplicate.
Assay [9] concerns the target T7, CHK2 Catalytic Domain (Homo sapiens, UniProt O96017).
T7 construct: For all of them, we expressed and purified the catalytic domain separately; His-tag; made in house; host or cells: Escherichia coli
To be noted: 2 µM protein, 10 µM inhibitor, average of 3 experiments, each in duplicate.

In assay [10] the target is T8, AKT3 Catalytic Domain (Homo sapiens, UniProt Q9Y243).
T8 construct: AKT3 (Q9Y243); CD; His-tag; made in house; host or cells: Escherichia coli
T8 sequence (Q9Y243 122-479): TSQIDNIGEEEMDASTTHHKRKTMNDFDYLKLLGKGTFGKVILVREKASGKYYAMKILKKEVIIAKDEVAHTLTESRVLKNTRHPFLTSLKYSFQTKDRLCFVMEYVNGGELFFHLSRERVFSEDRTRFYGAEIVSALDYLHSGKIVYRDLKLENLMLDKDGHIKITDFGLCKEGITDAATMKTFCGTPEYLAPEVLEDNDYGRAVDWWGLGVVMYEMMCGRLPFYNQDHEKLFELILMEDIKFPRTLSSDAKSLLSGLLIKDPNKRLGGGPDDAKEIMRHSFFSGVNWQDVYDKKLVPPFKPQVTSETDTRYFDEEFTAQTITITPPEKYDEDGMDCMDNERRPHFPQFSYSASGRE
To be noted: 2 µM protein, 10 µM inhibitor, average of 3 experiments, each in duplicate.

Assay [11] addresses T9, STK3 Catalytic Domain (Homo sapiens, UniProt Q13188).
T9 construct: For all of them, we expressed and purified the catalytic domain separately; His-tag; made in house; host or cells: Escherichia coli
T9 sequence (Q13188 27-278 limits assumed): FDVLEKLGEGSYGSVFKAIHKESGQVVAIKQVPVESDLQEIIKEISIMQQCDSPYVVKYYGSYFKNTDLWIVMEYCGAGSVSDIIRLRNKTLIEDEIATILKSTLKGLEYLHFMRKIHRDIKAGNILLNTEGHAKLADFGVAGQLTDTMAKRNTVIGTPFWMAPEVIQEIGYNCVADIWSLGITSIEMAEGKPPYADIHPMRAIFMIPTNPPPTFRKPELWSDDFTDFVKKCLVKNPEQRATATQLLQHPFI
To be noted: 2 µM protein, 10 µM inhibitor, average of 3 experiments, each in duplicate.

Assay [12] concerns the target T10, FAK2 Catalytic Domain (Homo sapiens, UniProt Q14289).
T10 construct: For all of them, we expressed and purified the catalytic domain separately; His-tag; made in house; host or cells: Escherichia coli
To be noted: 2 µM protein, 10 µM inhibitor, average of 3 experiments, each in duplicate.

Assay [13] addresses T11, PAK7 Catalytic Domain (Homo sapiens, UniProt Q9P286).
T11 construct: For all of them, we expressed and purified the catalytic domain separately; His-tag; made in house; host or cells: Escherichia coli
To be noted: 2 µM protein, 10 µM inhibitor, average of 3 experiments, each in duplicate.

The target of assay [14] is T12, PAK4 Catalytic Domain (Homo sapiens, UniProt O96013).
T12 construct: For all of them, we expressed and purified the catalytic domain separately; His-tag; made in house; host or cells: Escherichia coli
T12 sequence (O96013 321-572 limits assumed): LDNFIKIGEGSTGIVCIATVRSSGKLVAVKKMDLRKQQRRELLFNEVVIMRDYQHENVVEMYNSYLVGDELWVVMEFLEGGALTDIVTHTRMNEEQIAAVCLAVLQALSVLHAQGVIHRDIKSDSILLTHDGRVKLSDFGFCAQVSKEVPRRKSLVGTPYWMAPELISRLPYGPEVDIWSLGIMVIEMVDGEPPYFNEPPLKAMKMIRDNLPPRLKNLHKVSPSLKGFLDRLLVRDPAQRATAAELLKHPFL
The settings on record: 2 µM protein, 10 µM inhibitor, average of 3 experiments, each in duplicate.

The target in assay [15] is T13, CDK2 + Cyclin E (Homo sapiens, UniProt P24941).
T13 construct: CDK2 (P24941); 1–299; His-tag; made in house; host or cells: Escherichia coli
The settings on record: CDK2 + Cyclin E; 2 µM protein, 10 µM inhibitor; average of 3 experiments, each in duplicate.

T10 sequence (Q14289 425-683 limits assumed): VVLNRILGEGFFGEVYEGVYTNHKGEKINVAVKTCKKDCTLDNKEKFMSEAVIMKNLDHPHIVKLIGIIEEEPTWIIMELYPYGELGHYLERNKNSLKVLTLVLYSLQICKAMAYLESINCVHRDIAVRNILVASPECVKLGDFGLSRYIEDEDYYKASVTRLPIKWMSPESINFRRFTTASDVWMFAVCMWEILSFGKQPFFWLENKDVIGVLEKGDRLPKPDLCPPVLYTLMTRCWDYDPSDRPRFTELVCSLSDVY
Sequence of SRC Catalytic Domain+SH2+SH3 (P12931 84-523 limits assumed): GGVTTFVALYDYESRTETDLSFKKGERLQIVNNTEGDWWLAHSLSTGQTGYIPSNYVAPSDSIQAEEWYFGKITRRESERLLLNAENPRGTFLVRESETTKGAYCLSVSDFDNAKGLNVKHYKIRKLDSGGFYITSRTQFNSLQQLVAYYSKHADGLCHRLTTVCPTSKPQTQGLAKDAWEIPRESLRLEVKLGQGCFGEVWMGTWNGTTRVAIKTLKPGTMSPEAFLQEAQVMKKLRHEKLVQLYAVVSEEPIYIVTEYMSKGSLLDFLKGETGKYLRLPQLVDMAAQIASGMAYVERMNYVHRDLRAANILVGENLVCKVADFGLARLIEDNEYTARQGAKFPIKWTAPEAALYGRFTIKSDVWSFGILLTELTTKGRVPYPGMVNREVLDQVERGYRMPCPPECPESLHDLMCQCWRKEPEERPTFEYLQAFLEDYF
T7 sequence (O96017 220-486 limits assumed): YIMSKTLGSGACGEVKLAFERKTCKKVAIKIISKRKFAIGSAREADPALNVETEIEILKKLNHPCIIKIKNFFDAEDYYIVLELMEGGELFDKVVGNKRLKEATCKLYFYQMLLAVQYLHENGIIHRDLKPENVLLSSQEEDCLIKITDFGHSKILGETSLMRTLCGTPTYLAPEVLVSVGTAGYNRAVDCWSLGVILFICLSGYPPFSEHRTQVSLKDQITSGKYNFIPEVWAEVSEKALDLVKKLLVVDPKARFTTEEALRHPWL
T3 sequence (O96013 whole entry, the tested form may be a part): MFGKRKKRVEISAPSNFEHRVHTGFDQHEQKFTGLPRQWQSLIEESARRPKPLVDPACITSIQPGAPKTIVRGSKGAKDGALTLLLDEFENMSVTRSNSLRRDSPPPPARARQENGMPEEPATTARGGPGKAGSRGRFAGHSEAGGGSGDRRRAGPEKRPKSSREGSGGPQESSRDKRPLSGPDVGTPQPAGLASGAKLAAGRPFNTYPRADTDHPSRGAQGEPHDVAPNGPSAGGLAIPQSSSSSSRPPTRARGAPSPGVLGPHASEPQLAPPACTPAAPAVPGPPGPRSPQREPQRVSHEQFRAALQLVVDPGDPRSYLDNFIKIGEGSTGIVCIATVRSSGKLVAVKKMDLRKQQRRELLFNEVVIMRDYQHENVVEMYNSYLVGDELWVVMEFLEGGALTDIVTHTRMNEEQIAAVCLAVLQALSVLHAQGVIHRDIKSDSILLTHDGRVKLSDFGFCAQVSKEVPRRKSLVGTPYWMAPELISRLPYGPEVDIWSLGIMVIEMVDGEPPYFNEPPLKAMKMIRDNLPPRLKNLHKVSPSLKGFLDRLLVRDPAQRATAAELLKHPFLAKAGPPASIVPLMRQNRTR
T11 sequence (Q9P286 449-700 limits assumed): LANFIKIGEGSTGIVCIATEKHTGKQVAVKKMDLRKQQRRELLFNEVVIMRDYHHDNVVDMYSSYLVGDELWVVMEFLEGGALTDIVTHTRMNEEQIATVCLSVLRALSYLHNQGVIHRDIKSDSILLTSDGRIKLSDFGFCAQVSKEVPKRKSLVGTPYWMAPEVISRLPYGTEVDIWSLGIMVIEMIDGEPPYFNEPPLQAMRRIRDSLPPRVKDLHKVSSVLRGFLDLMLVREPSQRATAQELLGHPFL

In the case of `COc1cc2ncnc(Nc3ccc(NC(=O)c4ccccc4)cc3)c2cc1OC` [Aurora Kinase Inhibitor II], the “Melting temperature (Tm) shift” value in assay [1] turned out to be 0.4 degrees Celcius; in assay [2], 0.1 degrees Celcius; in assay [3], 0.1 degrees Celcius; in assay [4], 0.7 degrees Celcius; in [5], 0.1 degrees Celcius; in assay [6], 0.2 degrees Celcius. The “Melting temperature (Tm) shift” value stood at 0.1 degrees Celcius in [7]; 0.4 degrees Celcius in assay [8]; 7.0 degrees Celcius in assay [9]; 0.1 degrees Celcius in [10]; 0.9 degrees Celcius in assay [11]; 0.3 degrees Celcius in [12].
Take `O=C(Nc1cccc(Nc2nccc(Nc3cccc(C(F)(F)F)c3)n2)c1)C1CC1` [Aurora Kinase Inhibitor III]: the “Melting temperature (Tm) shift” value in assay [1] is 0.4 degrees Celcius; in [13], 0.0 degrees Celcius; in assay [2] it was 0.9 degrees Celcius; in assay [3] it was 1.1 degrees Celcius; in assay [4] it was 0.2 degrees Celcius; in [5], 0.2 degrees Celcius. The “Melting temperature (Tm) shift” value in assay [6] worked out at 0.3 degrees Celcius; in [7], 0.2 degrees Celcius; in assay [8], 0.0 degrees Celcius; in [9], 0.4 degrees Celcius; in assay [10] it was 0.1 degrees Celcius; in assay [11], 0.1 degrees Celcius. The “Melting temperature (Tm) shift” value was found to be 0.2 degrees Celcius in assay [12] and 0.8 degrees Celcius in [14].
For `CCN(CC)CCNC(=O)c1c(C)[nH]c(/C=C2\C(=O)Nc3ccc(Cl)cc32)c1C` [SU11652], the “Melting temperature (Tm) shift” value in assay [15] is 0.5 degrees Celcius; in [1], 3.8 degrees Celcius; in assay [2] it was 1.9 degrees Celcius; in assay [3], 2.0 degrees Celcius; in [4], 1.2 degrees Celcius; in assay [5], 2.8 degrees Celcius. Further, the “Melting temperature (Tm) shift” value in assay [6] came out at 0.9 degrees Celcius; in assay [7], 0.6 degrees Celcius; in assay [8], 0.5 degrees Celcius; in assay [9], 4.8 degrees Celcius; in assay [12] it was 1.3 degrees Celcius; in assay [14] it was 2.8 degrees Celcius.
Regarding `Cc1cc(Nc2nc(-c3ccccc3)nc3ccccc23)n[nH]1` [GSK-3 Inhibitor XIII], the “Melting temperature (Tm) shift” value came to 0.9 degrees Celcius in assay [1]; 2.0 degrees Celcius in [13]; 0.5 degrees Celcius in assay [2]; 0.8 degrees Celcius in [3]; 1.3 degrees Celcius in assay [4]; 1.0 degrees Celcius in assay [5]. Besides, the “Melting temperature (Tm) shift” value in assay [6] stood at 0.2 degrees Celcius; in [7] it was 0.3 degrees Celcius; in [8] it was 1.6 degrees Celcius; in [9], 1.9 degrees Celcius; in assay [10], 0.2 degrees Celcius; in assay [11], 3.7 degrees Celcius. The entries for the “Melting temperature (Tm) shift” value in [12] and in assay [14] were 0.8 degrees Celcius and 3.0 degrees Celcius, respectively.
`O=C1NC(=O)C(=Cc2ccc(-c3ccc(F)cc3O)o2)S1` [PI 3-Kγ/CKII Inhibitor]: the “Melting temperature (Tm) shift” value came to 0.2 degrees Celcius in [15]; 0.5 degrees Celcius in assay [1]; 0.3 degrees Celcius in [2]; 1.3 degrees Celcius in assay [3]; 0.0 degrees Celcius in assay [4]; 0.5 degrees Celcius in [6]. Further, the “Melting temperature (Tm) shift” value in assay [7] was determined as 0.2 degrees Celcius; in assay [8], 0.1 degrees Celcius; in assay [9], 2.5 degrees Celcius; in assay [11] it was 0.3 degrees Celcius; in assay [12], 0.1 degrees Celcius; in assay [14] it was 0.9 degrees Celcius.
Regarding `COc1cc2ncnc(Nc3ccc(Oc4ccccc4)cc3)c2cc1OC` [Src Kinase Inhibitor I], the “Melting temperature (Tm) shift” value stood at 0.2 degrees Celcius in assay [15]; 0.1 degrees Celcius in [1]; 0.0 degrees Celcius in assay [13]; 0.7 degrees Celcius in assay [2]; 2.1 degrees Celcius in assay [4]; 0.1 degrees Celcius in assay [5]. Also, the “Melting temperature (Tm) shift” value is listed as 0.1 degrees Celcius in assay [6]; 0.0 degrees Celcius in assay [7]; 1.6 degrees Celcius in assay [8]; 3.0 degrees Celcius in assay [9]; 0.3 degrees Celcius in assay [11]; 0.6 degrees Celcius in [12].
For `O=C1NC(=O)C(c2cn(CCCn3ccnc3)c3ccccc23)=C1Nc1ccccc1` [PKCb Inhibitor], the “Melting temperature (Tm) shift” value in assay [15] worked out at 0.0 degrees Celcius; in assay [1] it was 1.7 degrees Celcius; in assay [13], 0.0 degrees Celcius; in assay [2] it was 1.6 degrees Celcius; in assay [4], 0.1 degrees Celcius; in assay [5], 0.4 degrees Celcius. For the same compound, the “Melting temperature (Tm) shift” value is 0.5 degrees Celcius in assay [7], 2.0 degrees Celcius in assay [9] and 0.3 degrees Celcius in assay [11].
